This passage reports IC50 results from US12371454B2, “Cyclic peptide compound having Kras inhibitory action” (priority 2019, dated 2025).

Starred links: 1 amine or outer side, 2 acyl side, 3 side chain; linkers in the order of their positions; H or OH if unused. Positions of bridges follow the written chain, without caps; N, C: chain ends. Non-standard residues stand in square brackets, D forms with d. Residues, ends and D or L forms follow the SMILES beside them. *: point of attachment. NMeAbu(3,3-F2-piperidino) = CN[C@@H](CCN1CCCC(F)(F)C1)C(=O)O; hPhe(3-Cl-4-CF3) = N[C@@H](CCc1ccc(C(F)(F)F)c(Cl)c1)C(=O)O; NMePhe(4-CF3) = CN[C@@H](Cc1ccc(C(F)(F)F)cc1)C(=O)O; hPhe(4-CF3) = N[C@@H](CCc1ccc(C(F)(F)F)cc1)C(=O)O; NMePhe(3,4-F2) = CN[C@@H](Cc1ccc(F)c(F)c1)C(=O)O; NMePhe(4-Cl) = CN[C@@H](Cc1ccc(Cl)cc1)C(=O)O; NMedβ3hAla = C[C@H](CC(=O)[*:2])N(C)[*:1]; NMePhe(2-F) = CN[C@@H](Cc1ccccc1F)C(=O)O; NMeGly(cPent) = CN[C@H](C(=O)O)C1CCCC1; Pro(4,4-F2) = O=C(O)[C@@H]1CC(F)(F)CN1; NMeCha = CN[C@@H](CC1CCCCC1)C(=O)O; NMeF = CN[C@@H](Cc1ccccc1)C(=O)O; NMeI = CC[C@H](C)[C@H](NC)C(=O)O; NMeD = CN[C@@H](CC(=O)O)C(=O)O; NMeL = CN[C@@H](CC(C)C)C(=O)O; NMeV = CN[C@H](C(=O)O)C(C)C; d(β3hA) = C[C@@H](N)CC(=O)O; NMeA = CN[C@@H](C)C(=O)O; Pyrrolidide = C1CCN(*)C1; dNMeA = CN[C@H](C)C(=O)O; Ac5c = NC1(C(=O)O)CCCC1; Aze = O=C(O)[C@@H]1CCN1; Ac4c = NC1(C(=O)O)CCC1; βAla = NCCC(=O)O; Sar = CNCC(=O)O

T1 sequence (P01116 1-188 isoform P01116-2 G12D): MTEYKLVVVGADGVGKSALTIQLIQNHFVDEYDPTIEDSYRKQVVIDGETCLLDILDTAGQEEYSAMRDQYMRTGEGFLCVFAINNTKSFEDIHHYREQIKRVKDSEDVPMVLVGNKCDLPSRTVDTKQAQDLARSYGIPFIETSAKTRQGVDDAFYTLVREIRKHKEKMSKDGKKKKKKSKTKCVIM

This assay concerns the target T1, Kras and SOS1 (biotin-tagged human Kras loaded with GDP, His-tagged human SOS1) (Homo sapiens, UniProt P01116, G12D).
T1 construct: made in house; host or cells: E. coli (stated for Kras only)
The assay is described as follows: Protein-protein interaction inhibition between Kras and SOS1 (KrasGl2D-SOS PPI) using AlphaScreen. It counts as binding. The conditions noted are these: AlphaScreen; biotin-tagged human Kras loaded with GDP, His-tagged human SOS1; read-out: KRAS G12D-SOS PPI IC50. In short, it runs like this:
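Energy transfer from nickel-chelate donor beads bound to His-SOS1 to streptavidin acceptor beads bound to biotin-Kras, expressed in E. coli and loaded with GDP after purification, was monitored. Donors were excited at 680 nm; singlet oxygen reaching acceptors gave emission read at 520-620 nm.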
In general terms: In Alpha technology, singlet oxygen from a donor bead excites a nearby acceptor bead.
By IC50 is commonly meant the concentration that inhibits the measured activity by half. Turning to `CC[C@H](C)[C@@H]1NC(=O)[C@H](C)N(C)C(=O)C[C@@H](C)NC(=O)[C@H](C2CCCC2)N(C)C(=O)C2(CCCC2)NC(=O)[C@@H]2CCCN2C(=O)[C@H](CCc2ccc(C(F)(F)F)c(Cl)c2)NC(=O)[C@@H](C)N(C)C(=O)[C@H](Cc2ccc(Cl)cc2)N(C)C(=O)CN(C)C(=O)CN(C)C1=O` [Compound 1065] (cyclo([Ac5c][NMeGly(cPent)][d(β3hA)][NMeA]I[Sar][Sar][NMePhe(4-Cl)][dNMeA][hPhe(3-Cl-4-CF3)]P)), the IC50 worked out at 0.07 µM.
With `CC[C@H](C)[C@@H]1NC(=O)[C@H](CC(C)C)N(C)C(=O)C[C@@H](C)N(C)C(=O)[C@H]([C@@H](C)CC)N(C)C(=O)C2(CCC2)NC(=O)[C@@H]2CC(F)(F)CN2C(=O)[C@H](CCc2ccc(C(F)(F)F)c(Cl)c2)NC(=O)CN(C)C(=O)[C@H](Cc2ccc(C(F)(F)F)cc2)N(C)C(=O)CN(C)C(=O)CN(C)C1=O` [Compound 1074] (cyclo([Ac4c][NMeI][NMedβ3hAla][NMeL]I[Sar][Sar][NMePhe(4-CF3)][Sar][hPhe(3-Cl-4-CF3)][Pro(4,4-F2)])), the IC50 turned out to be 0.011 µM.
The result for `CC[C@H](C)[C@@H]1NC(=O)[C@H](C)N(C)C(=O)C[C@@H](C)NC(=O)[C@H](C2CCCC2)N(C)C(=O)C2(CCCC2)NC(=O)[C@@H]2CCCN2C(=O)[C@H](CCc2ccc(C(F)(F)F)c(Cl)c2)NC(=O)[C@@H](C)N(C)C(=O)[C@H](Cc2ccc(F)c(F)c2)N(C)C(=O)CN(C)C(=O)CN(C)C1=O` [Compound 1075] (cyclo([Ac5c][NMeGly(cPent)][d(β3hA)][NMeA]I[Sar][Sar][NMePhe(3,4-F2)][dNMeA][hPhe(3-Cl-4-CF3)]P)) reads 0.14 µM; that for `CC[C@H](C)[C@@H]1NC(=O)[C@H](C)N(C)C(=O)C[C@@H](C)NC(=O)[C@H](C2CCCC2)N(C)C(=O)C2(CCCC2)NC(=O)[C@@H]2CCCN2C(=O)[C@H](CCc2ccc(C(F)(F)F)c(Cl)c2)NC(=O)CN(C)C(=O)[C@H](Cc2ccccc2F)N(C)C(=O)[C@@H]2CCCN2C(=O)CN(C)C1=O` [Compound 1077] (cyclo([Ac5c][NMeGly(cPent)][d(β3hA)][NMeA]I[Sar]P[NMePhe(2-F)][Sar][hPhe(3-Cl-4-CF3)]P)), 0.034 µM; that for `CC[C@H](C)[C@@H]1NC(=O)[C@H](C)N(C)C(=O)C[C@@H](C)NC(=O)[C@H](C(C)C)N(C)C(=O)[C@H](Cc2ccccc2)N(C)C(=O)[C@H](CC(C)C)N(C)C(=O)[C@H](CCc2ccc(C(F)(F)F)c(Cl)c2)NC(=O)CN(C)C(=O)[C@H](Cc2ccc(Cl)cc2)N(C)C(=O)CN(C)C(=O)CN(C)C1=O` [Compound 1079] (cyclo(I[Sar][Sar][NMePhe(4-Cl)][Sar][hPhe(3-Cl-4-CF3)][NMeL][NMeF][NMeV][d(β3hA)][NMeA])), 0.015 µM.
With `CC[C@H](C)[C@@H]1NC(=O)[C@H](CC(C)C)N(C)C(=O)C[C@@H](C(=O)N(C)C)N(C)C(=O)[C@H](C2CCCC2)N(C)C(=O)[C@H](C)NC(=O)[C@H](CCN2CCCC(F)(F)C2)N(C)C(=O)[C@H](CCc2ccc(C(F)(F)F)c(Cl)c2)NC(=O)CN(C)C(=O)[C@H](CC2CCCCC2)N(C)C(=O)[C@@H]2CCN2C(=O)[C@H](C)N(C)C1=O` [Compound 1081] ([NMeL]I[NMeA][Aze][NMeCha][Sar][hPhe(3-Cl-4-CF3)][NMeAbu(3,3-F2-piperidino)]A[NMeGly(cPent)][NMeD]-NMe2; lactam N-11), the IC50 is 0.025 µM.
The figure for `CC[C@H](C)[C@@H]1NC(=O)[C@H](CC(C)C)N(C)C(=O)C[C@@H](C)NC(=O)[C@H](C(C)C)N(C)C(=O)C2(CCCC2)NC(=O)[C@@H]2CCCN2C(=O)[C@H](CCc2ccc(C(F)(F)F)c(Cl)c2)NC(=O)CN(C)C(=O)[C@H](CC2CCCCC2)N(C)C(=O)[C@@H]2CCN2C(=O)[C@@H]2CCCN2C1=O` [Compound 1082] (cyclo([Ac5c][NMeV][d(β3hA)][NMeL]IP[Aze][NMeCha][Sar][hPhe(3-Cl-4-CF3)]P)) is 0.27 µM.
The result for `CC[C@H](C)[C@@H]1NC(=O)[C@H](C)N(C)C(=O)C[C@@H](C(=O)N2CCCC2)NC(=O)[C@H](CC(C)C)N(C)C(=O)[C@H](Cc2ccccc2)NC(=O)[C@H](CC(C)C)NC(=O)[C@H](CCc2ccc(C(F)(F)F)cc2)NC(=O)CN(C)C(=O)[C@H](Cc2ccc(Cl)cc2)N(C)C(=O)CN(C)C(=O)CN(C)C1=O` [Compound 1085] ([NMeA]I[Sar][Sar][NMePhe(4-Cl)][Sar][hPhe(4-CF3)]LF[NMeL]D-Pyrrolidide; lactam N-11) reads 0.05 µM.
The figure for `CC[C@H](C)[C@@H]1NC(=O)[C@H](C)N(C)C(=O)CCNC(=O)[C@H](CC(C)C)N(C)C(=O)[C@H](Cc2ccccc2)N(C)C(=O)[C@@H]2CCCN2C(=O)[C@H](CCc2ccc(C(F)(F)F)cc2)NC(=O)CN(C)C(=O)[C@H](Cc2ccc(Cl)cc2)N(C)C(=O)CN(C)C(=O)CN(C)C1=O` [Compound 1086] (cyclo(I[Sar][Sar][NMePhe(4-Cl)][Sar][hPhe(4-CF3)]P[NMeF][NMeL][βAla][NMeA])) is 0.18 µM.
